# PubChem BioAssay (NCI)
#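 Cultured in 96-well plates, cells were exposed to test compound for 48 hours across five concentrations. The concentration for 50% growth inhibition is given as GI50. TGI: total growth inhibition.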
# Experiments:
# Assay in all cases: NCI tumour cell line growth inhibition, 48 h
# [1] = system: SF-539 CNS
# [2] = system: MDA-MB-468 breast
# [3] = system: HCT-116 colon
# [4] = system: OVCAR-5 ovarian
# [5] = system: MOLT-4 leukemia
# [6] = system: SR leukemia
# [7] = system: HS 578T breast
# [8] = system: UACC-62 melanoma
# [9] = system: M14 melanoma
# [10] = system: PC-3 prostate
# [11] = system: SF-268 CNS
# [12] = system: SN12C renal
# [13] = system: BT-549 breast
# [14] = system: SNB-75 CNS
# [15] = system: U251 CNS
# [16] = system: A549 NSCLC
# [17] = system: CCRF-CEM leukemia
# [18] = system: T-47D breast
# [19] = system: A498 renal
# [20] = system: RPMI-8226 leukemia
# [21] = system: 786-0 renal
# [22] = system: K-562 leukemia
# [23] = system: MDA-MB-435
# [24] = system: HL-60(TB) leukemia
# [25] = system: DU-145 prostate
# [26] = system: HT29 colon
# [27] = system: SW-620 colon
# [28] = system: COLO 205 colon
# [29] = system: NCI-H23 lung
# [30] = system: MALME-3M melanoma
# [31] = system: LOX IMVI melanoma
# [32] = system: UO-31 renal
# [33] = system: SK-MEL-5 melanoma
# [34] = system: MCF7 breast
# [35] = system: SF-295 CNS
# [36] = system: OVCAR-8 ovarian
# [37] = system: ACHN renal
# [38] = system: NCI/ADR-RES ovarian
# [39] = system: SK-OV-3 ovarian
# [40] = system: HCT-15 colon
# [41] = system: OVCAR-3 ovarian
# [42] = system: SK-MEL-28 melanoma
# [43] = system: IGROV1 ovarian
# [44] = system: HCC-2998 colon
# [45] = system: NCI-H522 lung
# [46] = system: CAKI-1 renal
# [47] = system: EKVX NSCLC
# [48] = system: HOP-62 NSCLC
# [49] = system: OVCAR-4 ovarian
# [50] = system: SNB-19 CNS
# [51] = system: NCI-H226 lung
# [52] = system: TK-10 renal
# [53] = system: NCI-H460 lung
# [54] = system: HOP-92 NSCLC
# [55] = system: UACC-257 melanoma
# [56] = system: KM12 colon
# [57] = system: SK-MEL-2 melanoma
# [58] = system: MDA-MB-231 breast
# [59] = system: RXF 393 renal
smiles,measurement,setting,value
COC(=O)c1ccc(-n2cc(CCCN(CCNc3ccnc4cc(Cl)ccc34)C(=O)CCC(=O)O[C@@H]3O[C@@H]4OC5(C)CC[C@H]6[C@H](C)CC[C@@H]([C@H]3C)[C@@]46OO5)nn2)cc1,GI50,[1],3.15 µM
same,TGI,[1],> 10.8 µM
same,GI50,[2],0.619 µM
same,TGI,[2],10.3 µM
same,GI50,[3],0.155 µM
same,TGI,[3],> 10.8 µM
same,GI50,[4],0.796 µM
same,TGI,[4],> 10.8 µM
same,GI50,[5],0.216 µM
same,TGI,[5],4.45 µM
same,GI50,[6],0.314 µM
same,TGI,[6],4.09 µM
same,GI50,[7],751 nM
same,TGI,[7],> 10.8 µM
same,GI50,[8],0.72 µM
same,TGI,[8],> 10.8 µM
same,GI50,[9],2.65 µM
same,TGI,[9],> 10.8 µM
same,GI50,[10],0.0917 µM
same,TGI,[10],> 10.8 µM
same,GI50,[11],2.58 µM
same,TGI,[11],> 10.8 µM
same,GI50,[12],1.68 µM
same,TGI,[12],> 10.8 µM
same,GI50,[13],0.541 µM
same,TGI,[13],> 10.8 µM
same,GI50,[14],1010 nM
same,TGI,[14],> 10.8 µM
same,GI50,[15],0.805 µM
same,TGI,[15],> 10.8 µM
same,GI50,[16],1.79 µM
same,TGI,[16],> 10.8 µM
same,GI50,[17],0.506 µM
same,TGI,[17],> 10.8 µM
same,GI50,[18],0.254 µM
same,TGI,[18],> 10.8 µM
same,GI50,[19],> 10.8 µM
same,TGI,[19],> 10.8 µM
same,GI50,[20],0.189 µM
same,TGI,[20],> 10.8 µM
same,GI50,[21],3.74 µM
same,TGI,[21],> 10.8 µM
same,GI50,[22],0.247 µM
same,TGI,[22],7.23 µM
same,GI50,[23],0.508 µM
same,TGI,[23],3.63 µM
same,GI50,[24],0.334 µM
same,TGI,[24],1600 nM
same,GI50,[25],> 10.8 µM
same,TGI,[25],> 10.8 µM
same,GI50,[26],0.519 µM
same,TGI,[26],> 10.8 µM
same,GI50,[27],375 nM
same,TGI,[27],> 10.8 µM
same,GI50,[28],0.355 µM
same,TGI,[28],> 10.8 µM
same,GI50,[29],0.633 µM
same,TGI,[29],> 10.8 µM
same,GI50,[30],1.25 µM
same,TGI,[30],2.75 µM
same,GI50,[31],429 nM
same,TGI,[31],6 µM
same,GI50,[32],1.03 µM
same,TGI,[32],> 10.8 µM
same,GI50,[33],0.755 µM
same,TGI,[33],2.41 µM
same,GI50,[34],0.444 µM
same,TGI,[34],2.32 µM
same,GI50,[35],3.24 µM
same,TGI,[35],> 10.8 µM
same,GI50,[36],0.55 µM
same,TGI,[36],3.85 µM
same,GI50,[37],1.87 µM
same,TGI,[37],> 10.8 µM
same,GI50,[38],1.76 µM
same,TGI,[38],> 10.8 µM
same,GI50,[39],> 10.8 µM
same,TGI,[39],> 10.8 µM
same,GI50,[40],0.246 µM
same,TGI,[40],2.13 µM
same,GI50,[41],0.397 µM
same,TGI,[41],> 10.8 µM
same,GI50,[42],1.33 µM
same,TGI,[42],> 10.8 µM
same,GI50,[43],1.88 µM
same,TGI,[43],> 10.8 µM
same,GI50,[44],2 µM
same,TGI,[44],> 10.8 µM
same,GI50,[45],0.442 µM
same,TGI,[45],> 10.8 µM
same,GI50,[46],6.83 µM
same,TGI,[46],> 10.8 µM
same,GI50,[47],0.827 µM
same,TGI,[47],> 10.8 µM
same,GI50,[48],> 10.8 µM
same,TGI,[48],> 10.8 µM
same,GI50,[49],0.546 µM
same,TGI,[49],> 10.8 µM
same,GI50,[50],> 10.8 µM
same,TGI,[50],> 10.8 µM
same,GI50,[51],1.11 µM
same,TGI,[51],> 10.8 µM
same,GI50,[52],> 10.8 µM
same,TGI,[52],> 10.8 µM
same,GI50,[53],6.15 µM
same,TGI,[53],> 10.8 µM
same,GI50,[54],280 nM
same,TGI,[54],2.82 µM
same,GI50,[55],0.89 µM
same,TGI,[55],> 10.8 µM
same,GI50,[56],0.319 µM
same,TGI,[56],> 10.8 µM
same,GI50,[57],2.4 µM
same,TGI,[57],> 10.8 µM
same,GI50,[58],6.84 µM
same,TGI,[58],> 10.8 µM
COc1ccc2[nH]c(=O)c(CSc3nccc(-c4ccc(OC)c(OC)c4)n3)cc2c1,GI50,[1],12.3 µM
same,TGI,[1],25.7 µM
same,GI50,[2],5.84 µM
same,TGI,[2],32.2 µM
same,GI50,[3],15.7 µM
same,TGI,[3],49.2 µM
same,GI50,[4],19.1 µM
same,TGI,[4],53.5 µM
same,GI50,[5],9.07 µM
same,TGI,[5],42.9 µM
same,GI50,[6],15.9 µM
same,TGI,[6],> 100 µM
same,GI50,[8],15 µM
same,TGI,[8],35.3 µM
same,GI50,[9],25.5 µM
same,TGI,[9],74.4 µM
same,GI50,[10],11.9 µM
same,TGI,[10],25.7 µM
same,GI50,[11],14.7 µM
same,TGI,[11],47.8 µM
same,GI50,[12],11.2 µM
same,TGI,[12],42.7 µM
same,GI50,[13],12.5 µM
same,TGI,[13],37.1 µM
same,GI50,[14],3430 nM
same,TGI,[14],25.9 µM
same,GI50,[15],22.4 µM
same,TGI,[15],> 100 µM
same,GI50,[16],20.9 µM
same,TGI,[16],91.5 µM
same,GI50,[17],10.5 µM
same,TGI,[17],> 100 µM
same,GI50,[18],10.9 µM
same,TGI,[18],67.4 µM
same,GI50,[19],14.7 µM
same,TGI,[19],37.5 µM
same,GI50,[20],6.26 µM
same,TGI,[20],88 µM
same,GI50,[21],15.4 µM
same,TGI,[21],33.8 µM
same,GI50,[22],7.33 µM
same,TGI,[22],29.6 µM
same,GI50,[23],23.7 µM
same,TGI,[23],73.8 µM
same,GI50,[24],35.2 µM
same,TGI,[24],> 100000 nM
same,GI50,[25],14.3 µM
same,TGI,[25],32.4 µM
same,GI50,[26],17.7 µM
same,TGI,[26],38.5 µM
same,GI50,[28],32.1 µM
same,TGI,[28],> 100 µM
same,GI50,[29],17.6 µM
same,TGI,[29],45.4 µM
same,GI50,[30],19.5 µM
same,TGI,[30],40 µM
same,GI50,[32],10.4 µM
same,TGI,[32],23.7 µM
same,GI50,[33],9.51 µM
same,TGI,[33],37.4 µM
same,GI50,[34],18.7 µM
same,TGI,[34],43 µM
same,GI50,[35],17.2 µM
same,TGI,[35],43 µM
same,GI50,[36],21 µM
same,TGI,[36],> 100 µM
same,GI50,[37],12.1 µM
same,TGI,[37],24.4 µM
same,GI50,[38],14.2 µM
same,TGI,[38],41.2 µM
same,GI50,[39],25.5 µM
same,TGI,[39],60.7 µM
same,GI50,[40],15.4 µM
same,TGI,[40],46.9 µM
same,GI50,[41],15.2 µM
same,TGI,[41],37.3 µM
same,GI50,[42],20.3 µM
same,TGI,[42],41.5 µM
same,GI50,[59],6.08 µM
same,TGI,[59],40.1 µM
same,GI50,[43],17.7 µM
same,TGI,[43],41.6 µM
same,GI50,[44],18.1 µM
same,TGI,[44],57.6 µM
same,GI50,[45],16.4 µM
same,TGI,[45],37.3 µM
same,GI50,[46],11 µM
same,TGI,[46],32.8 µM
same,GI50,[47],12.9 µM
same,TGI,[47],44 µM
same,GI50,[48],18.4 µM
same,TGI,[48],51.3 µM
same,GI50,[49],16.5 µM
same,TGI,[49],78.2 µM
same,GI50,[50],14.5 µM
same,TGI,[50],36 µM
same,GI50,[51],12.7 µM
same,TGI,[51],40.8 µM
same,GI50,[52],13.3 µM
same,TGI,[52],33.7 µM
same,GI50,[53],17.4 µM
same,TGI,[53],40.3 µM
same,GI50,[54],2010 nM
same,TGI,[54],8.63 µM
same,GI50,[55],28.9 µM
same,TGI,[55],99.9 µM
same,GI50,[56],21.8 µM
same,TGI,[56],62.1 µM
same,GI50,[57],15.1 µM
same,TGI,[57],51.3 µM
